Source: patent publication US20220281860A1, “COMPOUNDS AND METHODS OF TREATING RNA-MEDIATED DISEASES” (Arrakis Therapeutics, Inc., priority 2016, published 2022)

What was measured:
[1] = test system: Split3WJ.1_up_5IB+Split3WJ.1_down_3FAM (trans 3WJ as 1:1 mix); assay: Fluorescence quenching binding assay; settings: trans 3WJ Split3WJ.1; two concentration points; FIG. 109
Procedure: This assay will be used to test binding of compounds for RNA three way junction (such as a 38 nt construct). This is a fluorescence quenching assay utilizing FAM as fluorescence tag and Iowa Black as quencher. Tags are attached at the 3′ and 5′ end, respectively. Stable formation of MW upon compound binding would lead to quenching of the FAM fluorescence due to close proximity of the Iowa Black tag. Assay readout: FAM (485-520 nm) Fluorescence Intensity.
(§1) Assay sample buffer used: 10 mM CacoK pH 7.2, 30 mM NaCl. Buffer preparation in Dnase/Rnase Free distilled water (Gibco Life Technologies).
(§2) Tool compounds provided as dry powder are prepared as 50 mM stock solution in 100% d6-DMSO. Stock solutions of 50 mM concentration in d6-DMSO are stored at RT.
Sample plate: Greiner cat #784076, black, 384 (Dilution plate: Greiner REF 781101, PS-Microplate, 384 well, clear). Fluorescence Intensity device: Envision 1040285
Daily fresh (10 ml): 1 ml 100 mM CacoK pH 7.2 and 0.3 ml 1 M NaCl filled up to 10 ml with Dnase/Rnase Free distilled water […]
Calibration of the expected fluorescence signal at various RNA concentrations in either CacoK or NaPO4 buffers was performed first. Experiments in buffers containing salt show distinct fluorescence quenching behavior. […]
The fluorescence quenching experiment was repeated for compounds Ark0000013 and Ark0000014 to measure binding with: […]

RNA3WJ_1.1.0_5IB_3FAM = assay: Thermal shift binding assay; settings: 1 μM RNA, 8 μM compound
Description: (§3) Purpose: Test binding of compounds for RNA three way junction (for example, a construct of 38 nt). Thermal shift assay based on established fluorescence quenching assay utilizing FAM as fluorescence tag and Iowa Black as quencher. Tags were attached at the 3′ and 5′ end, respectively. Stable formation of 3WJ upon compound binding would lead to quenching of the FAM fluorescence due to close proximity of the Iowa Black tag. Thermal unfolding leads to increase of fluorescence emission. Assay readout: FAM (465-510 nm) Thermal Shift.
as §1, §2
(§4) Sample plate: Roche, Light Cycler480 Multiwell Plate96, white, REF 04729692001. (Dilution plate: Greiner REF 781101, PS-Microplate, 384 well, clear). Thermal Shift device: Roche, Light Cycler480.
(§5) Daily fresh (10 ml): 1 ml 100 mM CacoK pH 7.2 and 0.3 ml 1 M NaCl filled up to 10 ml with Dnase/Rnase Free distilled water.
(§6) Dilute the RNA 1:10 (final 10 μM) in Assay Buffer.
(§7) Heat up the diluted RNA up to 90° C. for 5 min (sealed Eppendorf Tube).
(§8) Cool down the RNA probe slowly to RT.
(§9) Dilute the compounds to 800 μM in DMSO (Assay: 8 μM).
(§10) 78.4 μL Assay Buffer are pipetted into Greiner REF 781101, PS-Microplate, 384 (each well needed).
(§11) Add 0.8 μL of the RNA-Solution ([…]).
(§12) Add 0.8 μL Compound-Solution ([…]).
(§13) Final concentrations in the sample: 1 μM RNA, 8 μM compound, 1% DMSO
(§14) Pipet 20 μL Sample Solution into Roche, Light Cycler480 Multiwell Plate96, white, REF 04729692001.
(§15) When sample transfer is finished, seal the plate with a clear topseal (part of REF 04729692001).
(§16) Centrifuge the plate with a table-top device to spin down the samples.
(§17) Measure the 96 plate with the LightCycler480 (Channel: 480/510 nm; Temperature: 41-91° C.).
(§18) Analyse measurement-data with the MeltingCurveGenotyping Mode.
(§19) Settings: Acquisition mode: continuous; Ramp rate: 0.1 C.°/sec; Acquisition: 6/C.° Melt Curve Genotyping for All Samples
(§20) Melting curves analysis show melting temperature (Tm) of ˜51° C. Range of RNA concentrations was tested and assay window was determined (conc. range of 0.5-1 μM yields best results). The choice of buffer also affected the Tm. RNA constructs were tested under different buffer conditions (especially in presence of salt) in the thermal shift assay. […] CacoK with 30 mM salt at 1 μM RNA conc. was used to assess compound effects on 3WJ stability. […] These conditions were used for screening test compounds.

RNA3WJ_2.0.0_5IB_3FAM = assay: Thermal shift binding assay; settings: 1 μM RNA, 8 μM compound
Description: as §3, §1, §2, §4, §5, §6, §7, §8, §9, §10, §11, §12, §13, §14, §15, §16, §17, §18, §19, §20

RNA3WJ_2.1.0_5IB_3FAM = assay: Thermal shift binding assay; settings: 1 μM RNA, 8 μM compound
Description: as §3, §1, §2, §4, §5, §6, §7, §8, §9, §10, §11, §12, §13, §14, §15, §16, §17, §18, §19, §20

RNA3WJ_1.1.1_5IB_3FAM = assay: Thermal shift binding assay; settings: 1 μM RNA, 8 μM compound
Description: as §3, §1, §2, §4, §5, §6, §7, §8, §9, §10, §11, §12, §13, §14, §15, §16, §17, §18, §19, §20

[2] = test system: RNA3WJ_0.0.0_5IB_3FAM (3WJ_0.0.0_5IB_3FAM) RNA three way junction; assay: Thermal shift binding assay; settings: RNA3WJ_0.0.0_5IB_3FAM; 1 μM RNA, 8 μM compound, 1% DMSO; 10 mM CacoK pH 7.2, 30 mM NaCl
Description: as §3, §1, §2, §4, §5, §6, §7, §8, §9, §10, §11, §12, §13, §14, §15, §16, §17, §18, §19, §20

Melting temp [° C.] + cmpd (RNA3WJ_1.1.0_5IB_3FAM) [°C] | Temp. Shift [° C.] (RNA3WJ_1.1.0_5IB_3FAM) [°C] | Melting temp [° C.] + cmpd (RNA3WJ_2.0.0_5IB_3FAM) [°C] | Temp. Shift [° C.] (RNA3WJ_2.0.0_5IB_3FAM) [°C] | Melting temp [° C.] + cmpd (RNA3WJ_2.1.0_5IB_3FAM) [°C] | Temp. Shift [° C.] (RNA3WJ_2.1.0_5IB_3FAM) [°C] | Melting temp [° C.] + cmpd (RNA3WJ_1.1.1_5IB_3FAM) [°C] | Temp. Shift [° C.] (RNA3WJ_1.1.1_5IB_3FAM) [°C] | Melting temp [° C.] + cmpd [2] [°C] | Temp. Shift [° C.] [2] [°C] | SMILES | Effect in fluorescence quenching assay [1]
65.1 | 1.8 | 64.4 | 2.2 | 42.0 | 0.1 | 64.3 | 2.1 | 61.5 | 1.6 | NCCCCCCCNC(=O)c1ccc2c(c1)C1c3cc(C(=O)NCCCCCCCN)ccc3C2c2ccc(C(=O)NCCCCCCCN)cc21 [Ark0000014, N^2,N^7,N^15-tris(7-aminoheptyl)-9,10-dihydro-9,10-[1,2]benzenoanthracene-2,7,15-tricarboxamide] | smaller effect
85.5 | 22.2 | 84.3 | 22.1 | 45.7 | 3.8 | 82.9 | 20.7 | 84.1 | 24.2 | CN(CCCN)CCCNC(=O)c1ccc2c(c1)C1c3cc(C(=O)NCCCN(C)CCCN)ccc3C2c2ccc(C(=O)NCCCN(C)CCCN)cc21 [Ark0000013, N^2,N^7,N^15-tris(3-((3-aminopropyl)(methyl)amino)propyl)-9,10-dihydro-9,10-[1,2]benzenoanthracene-2,7,15-tricarboxamide] | significant concentration dependent effect
